The source of these data is US9409870B2, “Compounds” (CHIESI FARMACEUTICI S.p.A., priority 2014, dated 2016).

Structures can show the parent of a compound that is named as a salt.

In general, IC50 refers to the midpoint of a concentration-inhibition curve.

The assay concerns the target T1, human neutrophil elastase (HNE) (Homo sapiens, UniProt P08246).
T1 construct: purchased Sigma E8140
T1 sequence (P08246 30-247 limits assumed): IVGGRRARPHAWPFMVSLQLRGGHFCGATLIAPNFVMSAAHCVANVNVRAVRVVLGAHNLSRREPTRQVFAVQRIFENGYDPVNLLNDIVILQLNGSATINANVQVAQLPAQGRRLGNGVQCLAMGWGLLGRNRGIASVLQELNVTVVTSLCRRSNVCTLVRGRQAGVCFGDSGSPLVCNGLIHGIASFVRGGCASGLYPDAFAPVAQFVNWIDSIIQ
Description: HNE enzyme activity assay (fluorogenic peptide substrate MeOSuc-Ala-Ala-Pro-Val-AMC). In kind it is biochemical. The note with it: human leukocyte elastase 0.00072 U/mL, substrate 100 μM, 25° C., 30 minutes, pH 7.5; at least two separate experiments; read-out: FINE inhibition (HNE enzyme inhibition, IC50 values). The protocol: Compounds of this invention were tested for potency in a human neutrophil elastase (HNE) enzyme activity assay.
Assays were performed in 96-well plates in a total assay volume of 100 μL. The final concentration of elastase enzyme (human leukocyte elastase, Sigma E8140) was 0.00072 U/mL. The peptide substrate (MeOSuc-Ala-Ala-Pro-Val-AMC, Calbiochem #324740) was used at a final concentration of 100 μM. The final concentration of DMSO was 1% in the assay buffer (0.05M Tris.HCl, 0.1M NaCl, 0.1M CaCl2, 0.0005% brij-35, pH 7.5). The enzymatic reaction was started by addition of the enzyme and incubated at 25° C. for 30 minutes. After incubation, the reaction was stopped by addition of soybean trypsin inhibitor (Sigma T9003) at a final concentration of 50 μg/well. Fluorescence was measured using a Molecular Devices fluorescence plate reader using 380 nm excitation and 460 nm emission wavelengths.
A dose response to each compound was performed and the effect of compound in each experiment was expressed as a percentage inhibition of the control enzyme fluorescence. Dose response curves were plotted and compound potency (IC50) was determined. Compounds were tested in at least two separate experiments.

Regarding `CCCCC(=O)n1c(-c2ccnn2-c2ccc(C#N)cc2)c(C)n(-c2cccc(C(F)(F)F)c2)c1=O` [Example 19, 4-(5-{5-Methyl-2-oxo-3-pentanoyl-1-[3-(trifluoromethyl)phenyl]-2,3-dihydro-1H-imidazol-4-yl}-1H-pyrazol-1-yl)benzonitrile], the IC50 was less than 1 nM.

For `Cc1c(-c2ccnn2-c2ccc(C#N)cc2)n(CC(=O)OC(C)(C)C)c(=O)n1-c1cccc(C(F)(F)F)c1` [Example 20, tert-Butyl-{5-[1-(4-cyanophenyl)-1H-pyrazol-5-yl]-4-methyl-2-oxo-3-[3-(trifluoromethyl)phenyl]-2,3-dihydro-1H-imidazol-1-yl}acetate], the IC50 lay within 10 to 50 nM. The figure for `CCN(C)C(=O)n1c(-c2ccnn2-c2ccc(C#N)cc2)c(C)n(-c2cccc(C(F)(F)F)c2)c1=O` [Example 21, 5-[1-(4-Cyanophenyl)-1H-pyrazol-5-yl]-N-ethyl-N,4-dimethyl-2-oxo-3-[3-(trifluoromethyl)phenyl]-2,3-dihydro-1H-imidazole-1-carboxamide] is 10 to 50 nM. The figure for `Cc1c(-c2ccnn2-c2ccc(C#N)cc2)n(CC(=O)O)c(=O)n1-c1cccc(C(F)(F)F)c1` [Example 22, {5-[1-(4-Cyanophenyl)-1H-pyrazol-5-yl]-4-methyl-2-oxo-3-[3-(trifluoromethyl)phenyl]-2,3-dihydro-1H-imidazol-1-yl}acetic acid] is 10 to 50 nM; for `CNC(=O)Cn1c(-c2ccnn2-c2ccc(C#N)cc2)c(C)n(-c2cccc(C(F)(F)F)c2)c1=O` [Example 23, 2-{5-[1-(4-Cyanophenyl)-1H-pyrazol-5-yl]-4-methyl-2-oxo-3-[3-(trifluoromethyl)phenyl]-2,3-dihydro-1H-imidazol-1-yl}-N-methylacetamide] it is 10 to 50 nM.

For the compound `Cc1c(-c2ccnn2-c2ccc(C#N)cc2)n(C(=O)NCCC[N+](C)(C)C)c(=O)n1-c1cccc(C(F)(F)F)c1` [Example 24, Benzenesulfonate 3-[({5-[1-(4-cyanophenyl)-1H-pyrazol-5-yl]-4-methyl-2-oxo-3-[3-(trifluoromethyl)phenyl]-2,3-dihydro-1H-imidazol-1-yl}carbonyl)amino]-N,N,N-trimethylpropan-1-aminium], the IC50 is 1 to 10 nM. In the case of `Cc1c(-c2ccnn2-c2ccc(C#N)cc2)n(C(=O)NCC[N+](C)(C)C)c(=O)n1-c1cccc(C(F)(F)F)c1` [Example 25, Benzenesulfonate 2-[({5-[1-(4-cyanophenyl)-1H-pyrazol-5-yl]-4-methyl-2-oxo-3-[3-(trifluoromethyl)phenyl]-2,3-dihydro-1H-imidazol-1-yl}carbonyl)amino]-N,N,N-trimethylethanaminium] it was 1 to 10 nM; in that of `CCCCn1c(-c2ccnn2-c2ccc(C#N)cc2)c(C)n(-c2cccc(C(F)(F)F)c2)c1=O` [Example 26, 4-(5-{3-Butyl-5-methyl-2-oxo-1-[3-(trifluoromethyl)phenyl]-2,3-dihydro-1H-imidazol-4-yl}-1H-pyrazol-1-yl)benzonitrile], 1 to 10 nM. For the compound `Cc1c(-c2ccnn2-c2ccc(C#N)cc2)n(S(C)(=O)=O)c(=O)n1-c1cccc(C(F)(F)F)c1` [Example 27, 4-(5-{5-Methyl-3-(methylsulfonyl)-2-oxo-1-[3-(trifluoromethyl)phenyl]-2,3-dihydro-1H-imidazol-4-yl}-1H-pyrazol-1-yl)benzonitrile], the IC50 was less than 1 nM.

Turning to `CCCC(C)n1c(-c2ccnn2-c2ccc(C#N)cc2)c(C)n(-c2cccc(C(F)(F)F)c2)c1=O` (stereo not drawn) [Example 28, 4-{5-[5-Methyl-3-(1-methyl-butyl)-2-oxo-1-(3-trifluoromethyl-phenyl)-2,3-dihydro-1H-imidazol-4-yl]pyrazol-1-yl}-benzonitrile], the IC50 lay in the range of 1 to 10 nM. In the case of `Cc1c(-c2ccnn2-c2ccc(C#N)cc2)n(CCN(C)C)c(=O)n1-c1cccc(C(F)(F)F)c1` [Example 29, 4-{5-[3-(2-Dimethylamino-ethyl)-5-methyl-2-oxo-1-(3-trifluoromethylphenyl)-2,3-dihydro-1H-imidazol-4-yl]-pyrazol-1-yl}-benzonitrile] it was 1 to 10 nM; in that of `Cc1c(-c2ccnn2-c2ccc(C#N)cc2)n(CCCN(C)C)c(=O)n1-c1cccc(C(F)(F)F)c1` [Example 30, 4-{5-[3-(3-Dimethylamino-propyl)-5-methyl-2-oxo-1-(3-trifluoromethylphenyl)-2,3-dihydro-1H-imidazol-4-yl]-pyrazol-1-yl}-benzonitrile], 1 to 10 nM. As to `CCCS(=O)(=O)n1c(-c2ccnn2-c2ccc(C#N)cc2)c(C)n(-c2cccc(C(F)(F)F)c2)c1=O` [Example 31, 4-{5-[5-Methyl-2-oxo-3-(propane-1-sulfonyl)-1-(3-trifluoromethyl-phenyl)-2,3-dihydro-1H-imidazol-4-yl]-pyrazol-1-yl}-benzonitrile], the IC50 is 1 to 10 nM. As for `Cc1c(-c2ccnn2-c2ccc(C#N)cc2)n(S(=O)(=O)C2CC2)c(=O)n1-c1cccc(C(F)(F)F)c1` [Example 32, 4-{5-[3-Cyclopropanesulfonyl-5-methyl-2-oxo-1-(3-trifluoromethyl-phenyl)-2,3-dihydro-1H-imidazol-4-yl]-pyrazol-1-yl}-benzonitrile], the 50% inhibitory concentration (IC50) is less than 1 nM. Consider `CCNS(=O)(=O)n1c(-c2ccnn2-c2ccc(C#N)cc2)c(C)n(-c2cccc(C(F)(F)F)c2)c1=O` [Example 33, 5-[2-(4-Cyano-phenyl)-2H-pyrazol-3-yl]-4-methyl-2-oxo-3-(3-trifluoromethylphenyl)-2,3-dihydro-imidazole-1-sulfonic acid ethylamide], for which the IC50 was 1 to 10 nM. The figure for `Cc1c(-c2ccnn2-c2ccc(C#N)cc2)n(S(=O)(=O)NC2CCCC2)c(=O)n1-c1cccc(C(F)(F)F)c1` [Example 34, 5-[2-(4-Cyano-phenyl)-2H-pyrazol-3-yl]-4-methyl-2-oxo-3-(3-trifluoromethylphenyl)-2,3-dihydro-imidazole-1-sulfonic acid cyclopentylamide] is less than 1 nM; for `Cc1c(-c2ccnn2-c2ccc(C#N)cc2)n(S(=O)(=O)NC2CC2)c(=O)n1-c1cccc(C(F)(F)F)c1` [Example 35, 5-[2-(4-Cyano-phenyl)-2H-pyrazol-3-yl]-4-methyl-2-oxo-3-(3-trifluoromethylphenyl)-2,3-dihydro-imidazole-1-sulfonic acid cyclopropylamide] it is 1 to 10 nM. The figure for `Cc1c(-c2ccnn2-c2ccc(C#N)cc2)n(CC(=O)N2CCCC2)c(=O)n1-c1cccc(C(F)(F)F)c1` [Example 36, 4-{5-[5-Methyl-2-oxo-3-(2-oxo-2-pyrrolidin-1-yl-ethyl)-1-(3-trifluoromethylphenyl)-2,3-dihydro-1H-imidazol-4-yl]-pyrazol-1-yl}-benzonitrile] is 1 to 10 nM. The figure for `Cc1c(-c2ccnn2-c2ccc(C#N)cc2)n(CC(=O)N(C)C)c(=O)n1-c1cccc(C(F)(F)F)c1` [Example 37, 2-[5-[2-(4-Cyano-phenyl)-2H-pyrazol-3-yl]-4-methyl-2-oxo-3-(3-trifluoromethyl-phenyl)-2,3-dihydro-imidazol-1-yl]-N,N-dimethyl-acetamide] is 1 to 10 nM. In the case of `Cc1c(-c2ccnn2-c2ccc(C#N)cc2)n(CC(=O)N2CCN(C)CC2)c(=O)n1-c1cccc(C(F)(F)F)c1` [Example 38, 4-{5-[5-Methyl-3-[2-(4-methyl-piperazin-1-yl)-2-oxo-ethyl]-2-oxo-1-(3-trifluoromethyl-phenyl)-2,3-dihydro-1H-imidazol-4-yl]-pyrazol-1-yl}-benzonitrile], the IC50 was 1 to 10 nM. The figure for `Cc1c(-c2ccnn2-c2ccc(C#N)cc2)n(CC(=O)NCCCN(C)C)c(=O)n1-c1cccc(C(F)(F)F)c1` [Example 39, 2-[5-[2-(4-Cyano-phenyl)-2H-pyrazol-3-yl]-4-methyl-2-oxo-3-(3-trifluoromethyl-phenyl)-2,3-dihydro-imidazol-1-yl]-N-(3-dimethylaminopropyl)-acetamide formic acid salt] is 10 to 50 nM; for `Cc1c(-c2ccnn2-c2ccc(C#N)cc2)n(CC(=O)N(C)C2CCC2)c(=O)n1-c1cccc(C(F)(F)F)c1` [Example 40, 2-[5-[2-(4-Cyano-phenyl)-2H-pyrazol-3-yl]-4-methyl-2-oxo-3-(3-trifluoromethyl-phenyl)-2,3-dihydro-imidazol-1-yl]-N-cyclobutyl-N-methyl-acetamide] it is 1 to 10 nM; for `Cc1c(-c2ccnn2-c2ccc(C#N)cc2)n(C(=O)NC2CCC2)c(=O)n1-c1cccc(C(F)(F)F)c1` [Example 41, 5-[2-(4-Cyano-phenyl)-2H-pyrazol-3-yl]-4-methyl-2-oxo-3-(3-trifluoromethyl-phenyl)-2,3-dihydro-imidazole-1-carboxylic acid cyclobutylamide] it is less than 1 nM.

With `Cc1c(-c2ccnn2-c2ccc(C#N)cc2)n(C(=O)NC2CC2)c(=O)n1-c1cccc(C(F)(F)F)c1` [Example 42, 5-[2-(4-Cyano-phenyl)-2H-pyrazol-3-yl]-4-methyl-2-oxo-3-(3-trifluoromethyl-phenyl)-2,3-dihydro-imidazole-1-carboxylic acid cyclopropylamide], the IC50 is less than 1 nM.
